Reference: patent US20220305093A1, “NK-LYSIN PEPTIDE COMPOSITIONS AND METHODS FOR THEIR USE AS ANTIMICROBIAL/ANTIVIRAL AGENTS” (priority 2021, published 2022)
Values after ≈ are worked out from the molar mass of the structure shown. Residues, ends and D or L forms follow the SMILES beside them.

Experiments:
[1] = test system: Escherichia coli (ATCC 11775); test: microbe, parasite or virus in culture; conditions: ATCC 11775
Method: (§1) The minimum inhibitory concentration (MIC) is defined as the lowest concentration of an antimicrobial ingredient or agent that is bacteriostatic (prevents the visible growth of bacteria).
(§2) Mueller Hinton broth (MHB) comprising 0.01% v/v acetic acid (Sigma Aldrich; St Louis, Mo.) and 0.2% w/v bovine serum albumin (Sigma Aldrich). Equal concentrations of bacteria were plated in wells of standard tissue culture microplates at a density of 0.5×10^8 CFU ml^−1 in MHB per well. Treatments were equivalent volumes (50 μl) of NK-lysin peptides in concentrations of 0 to 150 μg/ml, or no NK-lysin peptides for control wells. The treated plates were incubated at […] and optical densities were determined for each well at 0 minutes, 1, 2 and 3 hours and after an overnight incubation.

[2] = test system: Klebsiella oxytoca (ATCC 49131); test: microbe, parasite or virus in culture; conditions: ATCC 49131
Method: as §1, §2

[3] = test system: Klebsiella pneumoniae (patient isolate); test: microbe, parasite or virus in culture; conditions: patient isolate
Method: as §1, §2

[4] = test system: Pseudomonas aeruginosa (ATCC 9027); test: microbe, parasite or virus in culture; conditions: ATCC 9027
Method: as §1, §2

[5] = test system: Salmonella typhimurium (ATCC 14028); test: microbe, parasite or virus in culture; conditions: S.typhimrium ATCC 14028
Method: as §1, §2

[6] = test system: Shigella sonnei (ATCC 25931); test: microbe, parasite or virus in culture; conditions: Sh. sonnei ATCC 25931
Method: as §1, §2

[7] = test system: Streptococcus mutans (isolate); test: microbe, parasite or virus in culture; conditions: isolate
Method: as §1, §2

[8] = test system: Streptococcus pyogenes (ATCC 19615); test: microbe, parasite or virus in culture; conditions: ATCC 19615
Method: as §1, §2

[9] = test system: S. typhimurium (ATCC 14028); test: Colony count assays; format: cell-based, Salmonella typhimurium; conditions: 30 μg/ml
Method: Antimicrobial activity of NK-lysin peptides was assayed in cultures of S. typhimurium (ATCC 14028). The bacteria were maintained in tryptic soy broth at 3TC and were grown to the mid-logarithmic phase prior to testing. To determine the activity of NK-lysin peptides, colony count assays were carried out. Bacteria were pelleted and then re-suspended in a 10 mM sodium phosphate buffer pH 7.0 and then diluted to a density of (2×10^6 CFU ml^−1 in MHB. 50 μl of NK-lysin peptide were combined with an equal volume of bacterial culture and incubated at room temperature for 3 hours. A 1 μl sample of each culture was then diluted by 1000 (in 1 ml) and spread over MH agar plates. Colonies were counted after 24 hours at room temperature to determine the bacteria that survived.

[10] = test system: Salmonella typhimurium (ATCC 14028); test: Growth kinetic activity at 2×MIC; format: cell-based
Method: (§3) The kinetic killing abilities of NK-lysin peptides were gauged in accordance with the Clinical Laboratory and Standard Institute (CLSI) broth micro-dilution technique presented by Wiegand and Hancock (2008). Mueller Hinton broth comprising 0.01% v/v acetic acid was prepared with 0.2% w/v bovine serum albumin, as above. […] The plate was then incubated at room temperature. […] A distinct triplicate was used to repeat the kinetic potential of NK-lysin peptides thrice.

[11] = test system: Streptococcus mutans (isolate); test: Growth kinetic activity at 2×MIC; format: cell-based; conditions: time dependent, FIG. 3B
Method: as §3

[12] = test system: S. typhimurium (ATCC 14028); format: cell-based, Salmonella typhimurium; conditions: ATCC 14028
Method: Screening of NK-lysin peptides was carried out against gram-negative S. typhimurium (ATCC 14028) bacteria. Overnight cultivation of the bacteria was carried out at a temperature of 3TC. A bacterial suspension was created in 10 mM sodium phosphate buffer pH 7.0 having a density of (2×10^6 CFU ml^−1) and plated on Muller-Hinton (MH) agar plates to inoculate. After the plates were dry, antibiotics discs of various concentrations (0 to 150 μg/ml) of antibiotic or NK-lysin peptides were applied to the surface of the inoculated plates. The plates were cultured overnight at 3TC and observed for restriction of growth by determining the diameter of bacterial-free zones surrounding each disc. Ceftazidime antibiotic was employed as a positive control.

[13] = test system: Salmonella typhimurium (ATCC 14028); test: Leakage of intracellular contents (DNA/RNA release, OD 260 nm); format: cell-based; conditions: 15 min
Method: The protocol of Carson et al. (Antimicrob Agents Chemother. 2002 June; 46(60:1914-20) was used with some changes to perform the assay for determining the loss of DNA/RNA. In short, 50 μl of bacteria was combined with the same volume of NK-lysin peptides at 2×MIC and then incubated at room temperature. Samples were harvested at 15, 30 and 60 minutes, diluted 1:10 and then filtered across 0.22 μm pores (Merck; Tullagreen, Ireland). The measurement of the O.D 260 nm of the filtrates was carried out over NanoDrop plate (Greiner Bio-One GmbH; Frickenhausen, Germany). The results were presented as a ratio to the original OD260 nm. 16S rRNA Amplification Two universal primer sets 341F and 534 R were used to amplify 500 bp of 16s rRNA gene of Salmonella typhimurium. The forward primer had the following sequence: 5′-CCT ACG GGA GGC AGC AG-3′ (SEQ ID NO:04), whereas the reverse primer had the following: 5′-ATT ACC GCG GCT GCT GGC-3′ (SEQ ID NO:05). PCR amplification reactions were carried out in 50 μl of overall volume with a reaction mixture comprising 50 ng template DNA, 10 pmol each primer, 0.25 U Taq DNA polymerase, 10 mM Tris-HCl (pH.9.0), […] dNTPs mix, 30 mM KCl, 1.5 mM MgCl2 in sterile nuclease-free water. […]

Rotavirus (strain SA-11) = format: cell-based
Method: Rotavirus (strain SA-11) was activated with 10 μg/mL trypsin before propagation on MA-104 cells derived from kidney cells of African […] monkey. MA-104 cells were cultivated in tissue culture flasks in the presence of less than 5% CO2 at 37° C. in Dulbecco's Minimal Essential Medium (DMEM) (Sigma-Aldrich) The DMEM included 1% antibiotic antimycotic solution and 10% heat inactivated fetal bovine serum (A5955, Sigma-Aldrich). Centrifugation of rotavirus was performed at 300×g for 5 mins in order to purify by removal of cell debris. The supernatant was utilized as a stock suspension of virus after filtration through 0.2 μm membrane. The stock virus contained 10^6-10^7 TCID50 per mL and was stored at −80° C. for future use.
In order to activate infectivity, rotavirus was placed in a solution of 10 μg/mL trypsin at 37° C. for 30 min. A 100 μl aliquot of the activated rotavirus sa-11 was mixed with and equal volume of 80 μg/ml NK-lysin peptides for a final rotavirus concentration of 1×10^6 TCID50/ml. The rotavirus and NK-lysin peptide mixture was first incubated for at 37° C. for 1 hour. Serial dilutions of rotavirus and rotavirus+peptide mixtures were prepared. Aliquots 100 μl of the 10-fold serial dilutions were then added to 96-well tissue culture plates comprising monolayers of MA-104 cells at a density of approximately 5.0×10^4 cells per well. Eight wells were used for each sample to make sure sufficient assay precision was achieved. The microplates were incubated for 5 days at 37° C. under 5% CO2 atmosphere. During the 5-day incubation, cells were monitored daily under a microscope to check for a cytopathic effect (CPE). A tissue culture infectious dose (TCID) was the infectious dose/mL of tissue culture equal to 50 percent of wells showing CPE at a specific dilution and was expressed as the TCID50 for that dilution. The highest dilutions in which 50% or higher wells were read as the TCID50.

[14] = test system: gram-positive and gram-negative bacteria; test: organism not typed; conditions: in vitro, some bacterial strains
From the text: The gram-positive bacterial strains utilized were Streptococcus pyogenes (ATCC 19615) and Streptococcus mutans (isolate obtained from a patient at King Abdul-Aziz hospital). The gram-negative bacterial strains used included Salmonella typhimurium (ATCC 14028), Escherichia coli (ATCC 11775), Pseudomonas aeruginosa (ATCC 9027), Klebsiella oxytoca (ATCC 49131), Shigella sonnei (ATCC 25931), and Klebsiella pneumoniae (patient isolate). Tryptic soy broth (TSB) was used to grow all bacterial strain overnight, after which the bacteria were washed using phosphate-buffered saline (PBS, NaCl 8 g/L, KCl 0.2 g/L, Na2HPO4 1.4 g/L, KH2PO4 0.24 g/L), and then diluted in the same buffer with 1/1000 TSB to an OD600 nm of 0.08-0.1 (1×10^8) colony-forming units (CFU)/ml, which was determined after performing retrospective plate counts on tryptic soy agar. Unless otherwise noted, the experiments in the following examples employed this inoculum preparation apart from when minimum inhibitory and bactericidal concentrations were determined, which employed cells in Muller Hinton broth. […]
Mueller Hinton broth (MHB) comprising 0.01% v/v acetic acid (Sigma Aldrich; St Louis, Mo.) and 0.2% w/v bovine serum albumin (Sigma Aldrich). […] The treated plates were incubated at […] and optical densities were determined for each well at 0 minutes, 1, 2 and 3 hours and after an overnight incubation. […]

[15] = 80 μg/ml peptide, Rotavirus (SA-11)

Compound: CC[C@H](C)[C@H](NC(=O)[C@H](C)NC(=O)[C@H](CC(=O)O)NC(=O)[C@H](CCC(=O)O)NC(=O)[C@H](CC(=O)O)NC(=O)[C@@H]1CCCN1)C(=O)N[C@@H](CC(N)=O)C(=O)N[C@@H](CC(N)=O)C(=O)N[C@@H](C)C(=O)N[C@@H](CC(C)C)C(=O)N[C@@H](CC(N)=O)C(=O)N[C@@H](CCCCN)C(=O)N[C@H](C(=O)N[C@@H](CS)C(=O)N[C@@H](CO)C(=O)N[C@H](C(=O)NCC(=O)N[C@@H](CCCNC(=N)N)C(=O)N[C@@H](CCCNC(=N)N)C(=O)N[C@@H](CCC(N)=O)C(=O)N[C@@H](CCCNC(=N)N)C(=O)N[C@@H](CO)C(=O)N[C@H](C(=O)N[C@@H](CS)C(=O)N[C@@H](CCCCN)C(=O)N[C@@H](CCC(N)=O)C(=O)N[C@@H](CC(C)C)C(=O)N[C@@H](CC(C)C)C(=O)N[C@@H](CCCCN)C(=O)N[C@@H](CCCCN)C(=O)O)[C@@H](C)CC)[C@@H](C)O)C(C)C [Chicken NK-lysin] (H-PDEDAINNALNKVCSTGRRQRSICKQLLKK-OH; N-terminus and C-terminus assumed)
- MBC [1]: 25 ± 0.010 µg/mL (≈ 7.35 µM)
- MIC [1]: 15 ± 0.012 µg/mL (≈ 4.41 µM)
- MBC [2]: 25 ± 0.10 µg/mL (≈ 7.35 µM)
- MIC [2]: 15 ± 0.015 µg/mL (≈ 4.41 µM)
- MBC [3]: 25 ± 0.010 µg/mL (≈ 7.35 µM)
- MIC [3]: 15 ± 0.030 µg/mL (≈ 4.41 µM)
- MBC [4]: 25 ± 0.013 µg/mL (≈ 7.35 µM)
- MIC [4]: 15 ± 0.012 µg/mL (≈ 4.41 µM)
- MBC [5]: 30 ± 0.10 µg/mL (≈ 8.82 µM)
- MIC [5]: 15 ± 0.098 µg/mL (≈ 4.41 µM)
- MIC [6]: 15 ± 0.033 µg/mL (≈ 4.41 µM)
- MBC [7]: 15 ± 0.00 µg/mL (≈ 4.41 µM)
- MIC [7]: 15 ± 0.00 µg/mL (≈ 4.41 µM)
- MBC [8]: 25 ± 0.010 µg/mL (≈ 7.35 µM)
- MIC [8]: 15 ± 0.00 µg/mL (≈ 4.41 µM)
- decrease of colony number [9]: approximately 10 fold
- growth inhibition ([10]; 2×MIC, after 4 hr of incubation): Complete inhibition
- lethality ([10]; 1 hr after treatment): high lethality
- kinetic activity compared between peptides [11]: more potent activity than bovine or human NK-lysin peptides
- clear zone diameter [12]: 23 mm
- release of DNA/RNA (OD 260 nm), words [13]: higher activity
- Log10TCID50/ml (Rotavirus (strain SA-11); [15]): 5.61
- TCID50/ml (Rotavirus (strain SA-11); [15]): 4.11 × 10^5 TCID50/ml
- % reduction (Rotavirus (strain SA-11); 80 μg/ml peptide, versus initial titre): 79%
- inhibition of infection / infectivity (Rotavirus (strain SA-11); Rotavirus (strain SA-11)): 80%
- time to nearly complete killing [14]: ≤ 3 h
